Test results taken from ChEMBL document CHEMBL3997833, “Efficient synthesis of α-fluoromethylhistidine di-hydrochloride and demonstration of its efficacy as a glutathione S-transferase inhibitor” (Bioorg Med Chem Lett, 2017).

Assays:
[1] = tested on: GST (glutathione S-transferase); assay: (§1) Inhibition of Schistosoma japonicum C-terminal His6-tagged GST expressed in Escherichia coli BL21(DE3) assessed as reduction in GSH transfer activity by measuring residual activity at 150 uM using GSH/CDNB co-substrate mixture preincubated for 10 mins followed by substrate addition by colorimetric method relative to control; conditions: probe GSH/CDNB co-substrate mixture, read-out: Activity
[2] = tested on: GST (glutathione S-transferase); assay: as §1, with “10 mM” for “150 uM”; conditions: probe GSH/CDNB co-substrate mixture, read-out: Activity

Compound | activity at 150 µM [1] [%] | activity at 10000 µM [2] [%]
N[C@@](CF)(Cc1cnc[nH]1)C(=O)O | 57 | –
Nc1ccc(C(=O)O)cc1 [AMINOBENZOIC ACID] | – | 33
